Assay: Photoacoustic characteristic evaluation (photoacoustic signal measurement)
Details: pulse laser 790 nm, 12 mJ/cm^2; contrast agent in distilled water
Experimental: Regarding the measurement of a photoacoustic signal, a sample was irradiated with pulse laser light, a photoacoustic signal from the sample was detected by using a piezoelectric element and was measured by a digital oscilloscope after being amplified by a high-speed preamplifier. Specific conditions were as described below. A titanium sapphire laser (produced by Lotis) was used as a light source. Regarding the conditions, the wavelength was 790 nm, the energy density was 12 mJ/cm^2, the pulse width was 20 nanoseconds, and the pulse repetition was 10 Hz. Model V303 (produced by Panametrics-NDT) was used as an ultrasonic transducer. Regarding the conditions, the center band was 1 MHz, the element size was φ0.5, the measurement distance was 25 mm (non-focus), and the amplification was +30 dB (ultrasonic preamplifier Model 5682 produced by Olympus Corporation). A measurement container was a polystyrene cuvette, the optical path length was 0.1 cm, and the sampling capacitor was about 200 μL. The measurement was performed by using DPO4104 (produced by Tektronix Corporation), where the conditions were as described below, trigger: photoacoustic light was detected by a photodiode data acquisition: average of 128 times (128 pulses)

## CC1(C)C(/C=C/C=C/C=C/C=C2\N(CCCCS(=O)(=O)O)c3ccc4ccccc4c3C2(C)C)=[N+](CCCCS(=O)(=O)[O-])c2ccc3ccccc3c21 [Contrast agent (C-1), Indocyanine green]
  Photoacoustic signal intensity ratio: 1.0

From patent US20160361445A1, “COMPOUND OR SALT THEREOF AND PHOTOACOUSTIC IMAGING CONTRAST AGENT CONTAINING COMPOUND OR SALT THEREOF” (CANON KABUSHIKI KAISHA, priority 2015, published 2016)
